In paper PMC5063576, “High Potency VEGFRs/MET/FMS Triple Blockade by TAS-115 Concomitantly Suppresses Tumor Progression and Bone Destruction in Tumor-Induced Bone Disease Model with Lung Carcinoma Cells” (PLoS ONE, 2016):

Legend:
MET = MET (Homo sapiens, UniProt P08581); test: In vitro kinase assay, MET; type: biochemical; details: assay as described previously [16]
Experimental: (§1) Enzyme inhibition studies were performed using LANCE® Ultra TR-FRET assay technology. Briefly, 0.03 μg/mL dephospho-rhFMS and 100 nM ULightTM-poly GT (4:1) (PerkinElmer) were mixed and incubated for 40 min at 25°C in 10 μL of reaction mixture containing 100 μM ATP, 15 mM tris (hydroxymethyl) aminomethane (Tris (pH 7.5)), 0.01% (v/v) Tween 20, 5 mM MgCl2, 2 mM dithiothreitol and various concentrations of the test compound. […] By referring to the TR-FRET signals of positive (no inhibitor) and negative (EDTA was added before the reaction was started) control wells, the percent inhibition of each well was calculated and the half-maximal inhibitory concentration (IC50) value was determined using a four-parameter sigmoidal equation. The assay of MET and VEGFR2 kinase activity was performed as described previously.

[1] = biological target: T1, Recombinant human FMS dephosphorylated with lambda phosphatase (dephospho-rhFMS) (Homo sapiens, UniProt P07333); test: In vitro kinase assay, recombinant dephospho-FMS (LANCE Ultra TR-FRET); type: biochemical; details: 100 μM ATP
T1 sequence (P07333 538-972): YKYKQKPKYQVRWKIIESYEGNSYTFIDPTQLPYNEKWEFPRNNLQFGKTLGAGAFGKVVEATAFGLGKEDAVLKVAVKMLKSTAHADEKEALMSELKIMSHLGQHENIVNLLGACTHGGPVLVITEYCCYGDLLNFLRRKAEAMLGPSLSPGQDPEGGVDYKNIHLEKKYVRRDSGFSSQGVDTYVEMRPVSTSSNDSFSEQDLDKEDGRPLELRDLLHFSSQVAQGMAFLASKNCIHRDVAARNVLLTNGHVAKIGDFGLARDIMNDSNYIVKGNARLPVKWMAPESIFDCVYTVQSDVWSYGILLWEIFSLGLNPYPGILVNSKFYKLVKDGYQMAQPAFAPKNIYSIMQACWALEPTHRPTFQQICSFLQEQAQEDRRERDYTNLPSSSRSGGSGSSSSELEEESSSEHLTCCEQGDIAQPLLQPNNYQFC
Experimental: as §1

VEGFR2 = VEGFR2 (Homo sapiens, UniProt P35968); test: In vitro kinase assay, VEGFR2; type: biochemical; details: assay as described previously [16]
VEGFR2, sequence (P35968 20-1356, species assumed): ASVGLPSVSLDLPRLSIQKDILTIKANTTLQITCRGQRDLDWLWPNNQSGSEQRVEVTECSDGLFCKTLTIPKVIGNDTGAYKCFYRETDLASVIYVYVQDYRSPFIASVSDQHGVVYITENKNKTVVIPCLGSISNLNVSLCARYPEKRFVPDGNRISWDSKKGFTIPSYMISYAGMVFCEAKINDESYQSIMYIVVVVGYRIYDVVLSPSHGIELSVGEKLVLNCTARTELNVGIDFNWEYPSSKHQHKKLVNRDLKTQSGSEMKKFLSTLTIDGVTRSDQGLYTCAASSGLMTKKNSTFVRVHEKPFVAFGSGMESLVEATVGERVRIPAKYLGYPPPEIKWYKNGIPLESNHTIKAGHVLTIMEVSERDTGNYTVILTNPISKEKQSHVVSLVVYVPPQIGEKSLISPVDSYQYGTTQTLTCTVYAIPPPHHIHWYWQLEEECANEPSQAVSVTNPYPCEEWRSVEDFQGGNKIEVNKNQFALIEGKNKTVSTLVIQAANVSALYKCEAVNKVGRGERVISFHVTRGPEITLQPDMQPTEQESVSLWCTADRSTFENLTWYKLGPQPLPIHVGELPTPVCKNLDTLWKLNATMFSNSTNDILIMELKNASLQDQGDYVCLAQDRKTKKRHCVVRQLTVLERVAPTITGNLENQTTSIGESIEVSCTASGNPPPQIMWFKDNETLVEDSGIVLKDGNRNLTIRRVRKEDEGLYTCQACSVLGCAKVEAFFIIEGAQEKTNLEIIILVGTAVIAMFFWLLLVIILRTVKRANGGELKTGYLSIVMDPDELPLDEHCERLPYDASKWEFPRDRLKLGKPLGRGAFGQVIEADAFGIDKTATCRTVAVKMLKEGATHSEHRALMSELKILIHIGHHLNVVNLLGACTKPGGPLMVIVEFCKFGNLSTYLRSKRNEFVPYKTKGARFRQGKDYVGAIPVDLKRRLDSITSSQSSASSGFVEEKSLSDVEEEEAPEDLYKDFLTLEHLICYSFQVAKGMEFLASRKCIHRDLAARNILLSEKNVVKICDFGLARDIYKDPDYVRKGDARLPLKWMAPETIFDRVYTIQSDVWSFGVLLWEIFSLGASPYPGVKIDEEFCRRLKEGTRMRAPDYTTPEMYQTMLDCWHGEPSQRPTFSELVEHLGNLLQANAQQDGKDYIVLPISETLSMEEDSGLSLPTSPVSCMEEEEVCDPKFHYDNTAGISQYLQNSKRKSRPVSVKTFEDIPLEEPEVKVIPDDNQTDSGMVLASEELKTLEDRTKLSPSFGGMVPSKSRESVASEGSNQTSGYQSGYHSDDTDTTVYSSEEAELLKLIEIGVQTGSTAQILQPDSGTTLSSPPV
Experimental: as §1

[2] = test system: FMS phosphorylation in human acute monocytic THP-1 leukemia cells; test: M-CSF-induced FMS phosphorylation in THP-1 cells (immunoblotting); type: cell-based; details: 2 h, 120 min compound incubation, 30 ng/mL M-CSF, read-out: cellular IC50 against M-CSF-induced FMS phosphorylation
Experimental: Supplementary file pone.0164830.s005.tif: S5 Fig The inhibition of the FMS signaling pathway in human acute monocytic leukemia THP-1 cells by TAS-115. […] After incubation with the compounds for 120 min, THP-1 cells were stimulated with 30 ng/mL of M-CSF and lysed at 1 min post M-CSF stimulation. Specific proteins in the cell lysates were detected using immune blotting and were quantified using Multi Gauge Ver 3.2 (FUJIFILM). IC50 values were calculated using Xlfit 5.3.0.8 (CTC Life Science Corporation, Tokyo, Japan). (TIF) Click here for additional data file.

[3] = test system: VEGFR2 phosphorylation in MDBMs; test: In vitro MDBM signaling, rhVEGF-induced VEGFR2 phosphorylation; type: cell-based, mouse; details: rhVEGF 100 ng/mL 5 min, immunoprecipitation and Western blotting
Experimental: For analysis of the expression and phosphorylation levels of FMS, MET and VEGFR2, MDBMs were cultured with hM-CSF (20000 U/mL) for 4 days (400000 cells/dish in Suspension Culture Dishes (Corning Inc., NY). The phosphorylation levels of FMS and downstream signaling molecules were then analyzed in these MDBMs following incubation for 1 hr with test compounds at the indicated concentration. The phosphorylation of MET or VEGFR2 was analyzed in these MDBMs following stimulation with rhHGF (100 ng/mL, 10 min) or rhVEGF (100 ng/mL, 5 min), respectively. After incubation, the MDBMs were harvested, the cells were lysed and target signaling proteins were detected by immunoblotting. For analysis of VEGFR2 and its phosphorylated form, the lysate was immunoprecipiated with an anti-VEGFR antibody prior to immunoblotting.

[4] = test system: M-CSF dependent bone marrow macrophages (MDBMs); test: In vitro osteoclast differentiation assay (TRAP activity); type: cell-based, mouse; details: MDBMs with hM-CSF and rhsRANKL for 4 days
Experimental: To prepare macrophage colony-stimulating factor (M-CSF) dependent bone marrow macrophages (MDBMs), bone marrow cells were obtained from the femurs of male BALB/c mice (CLEA Japan) and adherent cells were cultured with human M-CSF (hM-CSF; 10000 U/mL) for 6 days. MDBMs were collected and cultured with hM-CSF (10000 U/mL) and recombinant human soluble RANKL (rhsRANKL)-GST (5 nM) for 4 days (25000 cells/well in a 96 well flat plate) for induction of differentiation into osteoclasts. Test compounds were then added to the culture media at the indicated concentration. TRAP activities were measured using the commercially available TRACP and ALP Assay Kit (TAKARA BIO INC).

[5] = test system: A549-Luc-BM1 cells in the mouse tibia; test: Tumor-induced bone disease model, intra-tibial A549-Luc-BM1, bioluminescence imaging; type: in vivo, BALB/c nude mice; details: day 28; 4 weeks; oral once daily TAS-115 200 mg/kg, cabozantinib 15 mg/kg, sunitinib 40 mg/kg, crizotinib 100 mg/kg; ZA 0.2 mg/kg s.c. twice weekly
Experimental: Tumor growth in the tibiae was monitored by bioluminescence imaging using an IVIS Lumina II Imaging System (PerkinElmer, MA). […] Images were analyzed using the Living Image 3.1 software (PerkinElmer). Total photon flux (TP) was calculated by summation of the photon flux of ventral and right lateral images. One week post tumor implantation, 8–9 animals were allocated to each experimental group by a stratified randomization method with SAS version 9.2 (SAS Institute Japan, Tokyo, Japan) using TP as an allocation parameter, following which drug treatment was then started. […] The doses of each drug were selected based on the maximum tolerated dose (MTD) in in-house studies (data not shown). […] Zoledronic acid (ZA) was subcutaneously injected twice weekly for 4 weeks at a dose of 0.2 mg/kg, which was a previously reported efficacious dose. The allocation day was set as day 0, and drug administration was initiated from day 1. As an indicator of changes in tumor growth during the dosing period, relative total photon flux (RTP), was calculated according to the following formula: RTPday n = (TP on each measurement day) / (TPday 0) × 100. TPday 0 is the TP on the allocation day.

MET, sequence (P08581 25-1390): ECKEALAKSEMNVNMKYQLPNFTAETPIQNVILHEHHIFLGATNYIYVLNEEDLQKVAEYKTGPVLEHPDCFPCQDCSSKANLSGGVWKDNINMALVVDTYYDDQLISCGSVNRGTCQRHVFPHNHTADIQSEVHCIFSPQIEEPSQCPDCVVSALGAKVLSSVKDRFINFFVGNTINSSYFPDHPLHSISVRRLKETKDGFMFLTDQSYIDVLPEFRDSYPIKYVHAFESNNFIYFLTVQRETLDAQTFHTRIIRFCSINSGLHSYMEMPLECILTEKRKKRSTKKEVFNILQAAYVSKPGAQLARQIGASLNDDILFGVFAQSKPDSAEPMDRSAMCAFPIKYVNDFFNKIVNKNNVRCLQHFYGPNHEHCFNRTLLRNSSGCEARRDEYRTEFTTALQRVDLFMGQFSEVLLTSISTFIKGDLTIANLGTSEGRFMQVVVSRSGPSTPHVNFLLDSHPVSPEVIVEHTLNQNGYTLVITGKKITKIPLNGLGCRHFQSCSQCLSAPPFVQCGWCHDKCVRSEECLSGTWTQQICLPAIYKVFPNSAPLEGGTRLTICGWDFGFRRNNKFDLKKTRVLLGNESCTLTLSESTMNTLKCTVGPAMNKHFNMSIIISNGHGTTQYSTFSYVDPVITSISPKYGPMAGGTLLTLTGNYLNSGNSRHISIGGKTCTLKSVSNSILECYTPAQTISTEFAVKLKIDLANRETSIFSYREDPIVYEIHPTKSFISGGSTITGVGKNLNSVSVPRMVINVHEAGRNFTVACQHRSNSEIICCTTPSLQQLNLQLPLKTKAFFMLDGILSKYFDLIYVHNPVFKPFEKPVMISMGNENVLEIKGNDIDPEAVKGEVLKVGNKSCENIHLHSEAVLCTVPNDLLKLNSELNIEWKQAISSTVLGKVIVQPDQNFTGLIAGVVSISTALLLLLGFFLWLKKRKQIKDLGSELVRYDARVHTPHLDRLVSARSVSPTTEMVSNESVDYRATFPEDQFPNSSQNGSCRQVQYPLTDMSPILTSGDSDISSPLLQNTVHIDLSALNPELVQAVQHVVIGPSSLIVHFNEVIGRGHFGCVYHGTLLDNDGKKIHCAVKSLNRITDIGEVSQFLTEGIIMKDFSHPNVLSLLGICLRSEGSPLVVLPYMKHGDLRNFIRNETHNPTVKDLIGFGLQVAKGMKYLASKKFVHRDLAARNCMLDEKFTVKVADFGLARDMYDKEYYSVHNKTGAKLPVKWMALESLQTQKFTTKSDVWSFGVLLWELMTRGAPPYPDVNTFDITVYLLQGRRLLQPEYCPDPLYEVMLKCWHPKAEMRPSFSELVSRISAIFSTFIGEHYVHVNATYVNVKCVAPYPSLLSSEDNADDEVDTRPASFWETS

Question: Which IC50 (MET) does the source give for `CNC(=O)c1cc2c(Oc3ccc(NC(=S)NC(=O)Cc4ccccc4)cc3F)ccnc2cc1OC` [TAS-115, 4-[2-fluoro-4-[[[(2-phenylacetyl)amino]thioxomethyl]amino]-phenoxy] -7-methoxy-N-methyl-6-quinolinecarboxamide] here?
Answer: 32 nM

Question: And the IC50 [1]?
Answer: 15 nM

Question: And the IC50 (VEGFR2)?
Answer: 30 nM

Question: What about the IC50 [2] of the same compound?
Answer: 12 nM

Question: And the “concentration inhibiting the phosphorylation of VEGFR2” value [3]?
Answer: greater than 0.03 μM

Question: What about the “concentration that potently inhibited / markedly affected RANKL and M-CSF-induced mouse osteoclast formation” value [4] of the same compound?
Answer: 0.3 µM

Question: And the “tumor growth inhibition percentage (TGI)” value [5]?
Answer: 85%
